How the values were obtained:
Pharbitis purpurea [1] = assay: Post-emergence herbicidal action, greenhouse, 320 g/ha; format: in vivo; conditions: application rate 320 g/ha, rated visually after about 3 weeks vs untreated controls
How it was run: (§1)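 Plants treated post-emergence at the one-leaf stage, 2 to 3 weeks after sowing in sandy loam, with WP or EC formulations plus 0.5% additive at 320 g/ha. Visual rating about 3 weeks later versus untreated controls (100% = dead, 0% = like control).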

Hordeum murinum [2] = assay: as above; format: in vivo; conditions: application rate 320 g/ha, rated visually after about 3 weeks vs untreated controls
How it was run: as §1

Digitaria sanguinalis [3] = assay: as above; format: in vivo; conditions: application rate 320 g/ha, rated visually after about 3 weeks vs untreated controls
How it was run: as §1

Setaria viridis [4] = assay: Pre-emergence herbicidal action, greenhouse, 320 g/ha; format: in vivo; conditions: application rate 320 g/ha, Table B11
How it was run: (§2)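 Test substances, formulated as wettable powders or emulsion concentrates, are applied to the soil covering the seeds in water containing 0.5% additive. Scoring after roughly three weeks is visual and expressed in percent relative to untreated controls.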

Viola tricolor [5] = assay: as above; format: in vivo; conditions: application rate 320 g/ha, Table B8
How it was run: as §2

Avena fatua = assay: as above; format: in vivo; conditions: application rate 320 g/ha, scored visually after about 3 weeks vs untreated controls
How it was run: as §2

Stellaria media [6] = assay: as above; format: in vivo; conditions: application rate 320 g/ha, scored visually after about 3 weeks vs untreated controls
How it was run: as §2

Alopecurus myosuroides = assay: as above; format: in vivo; conditions: application rate 320 g/ha, scored visually after about 3 weeks vs untreated controls
How it was run: as §2

Abutilon theophrasti [7] = assay: as above; format: in vivo; conditions: application rate 320 g/ha, scored visually after about 3 weeks vs untreated controls
How it was run: as §2

Echinochloa crus-galli [8] = assay: as above; format: in vivo; conditions: application rate 320 g/ha, scored visually after about 3 weeks vs untreated controls
How it was run: as §2

Polygonum convolvulus [9] = assay: as above; format: in vivo; conditions: application rate 320 g/ha, scored visually after about 3 weeks vs untreated controls
How it was run: as §2

Hordeum murinum [10] = assay: as above; format: in vivo; conditions: application rate 320 g/ha, Table B14
How it was run: as §2

Amaranthus retroflexus [11] = assay: as above; format: in vivo; conditions: application rate 320 g/ha, scored visually after about 3 weeks vs untreated controls
How it was run: as §2

Matricaria inodora [12] = assay: as above; format: in vivo; conditions: application rate 320 g/ha, scored visually after about 3 weeks vs untreated controls
How it was run: as §2

Digitaria sanguinalis [13] = assay: as above; format: in vivo; conditions: application rate 320 g/ha, Table B9
How it was run: as §2

Stellaria media [14] = assay: Herbicidal pre-emergence action (Part 2), 1280 g/ha; format: in vivo; conditions: application rate 1280 g/ha, scored visually after about 3 weeks, Table D8
How it was run: (§3)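 Visual percent activity relative to untreated plants (0% = like control, 100% = plants died) was rated about 3 weeks after treatment. Compounds formulated as WP or EC were applied at 1280 g/ha onto covering soil over freshly sown weeds, in 600 L/ha spray water with 0.5% additive, with greenhouse growth.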

Echinochloa crus-galli [15] = assay: as above; format: in vivo; conditions: application rate 1280 g/ha, scored visually after about 3 weeks, Table D1
How it was run: as §3

Amaranthus retroflexus [16] = assay: as above; format: in vivo; conditions: application rate 1280 g/ha, scored visually after about 3 weeks, Table D6
How it was run: as §3

Matricaria inodora [17] = assay: as above; format: in vivo; conditions: application rate 1280 g/ha, scored visually after about 3 weeks, Table D7
How it was run: as §3

Poa annua = assay: as above; format: in vivo; conditions: application rate 1280 g/ha, scored visually after about 3 weeks, Table D3
How it was run: as §3

Stellaria media [18] = assay: Herbicidal post-emergence action (Part 2), 1280 g/ha; format: in vivo; conditions: application rate 1280 g/ha, rated visually after about 3 weeks, Table C7
How it was run: (§4)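 Percent activity (100% = plants dead, 0% = as untreated) scored visually about 3 weeks after spraying. Plants were sown in sandy loam, grown in greenhouse and sprayed at one-leaf stage, 2-3 weeks post-sowing, with aqueous WP/EC preparations containing 0.5% additive at 600 L/ha.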

Echinochloa crus-galli [19] = assay: as above; format: in vivo; conditions: post-emergence (Part 2), application rate 1280 g/ha, rated visually after about 3 weeks vs untreated controls
How it was run: as §4

Amaranthus retroflexus [20] = assay: as above; format: in vivo; conditions: application rate 1280 g/ha, rated visually after about 3 weeks, Table C5
How it was run: as §4

Matricaria inodora [21] = assay: as above; format: in vivo; conditions: application rate 1280 g/ha, rated visually after about 3 weeks, Table C6
How it was run: as §4

Viola tricolor [22] = assay: Post-emergence herbicidal action, greenhouse, 320 g/ha; format: in vivo; conditions: application rate 320 g/ha, rated visually after about 3 weeks vs untreated controls
How it was run: as §1

Stellaria media [23] = assay: as above; format: in vivo; conditions: application rate 320 g/ha, rated visually after about 3 weeks vs untreated controls
How it was run: as §1

Abutilon theophrasti [24] = assay: as above; format: in vivo; conditions: application rate 320 g/ha, rated visually after about 3 weeks vs untreated controls
How it was run: as §1

Polygonum convolvulus [25] = assay: as above; format: in vivo; conditions: application rate 320 g/ha, rated visually after about 3 weeks vs untreated controls
How it was run: as §1

Amaranthus retroflexus [26] = assay: as above; format: in vivo; conditions: application rate 320 g/ha, rated visually after about 3 weeks vs untreated controls
How it was run: as §1

Matricaria inodora [27] = assay: as above; format: in vivo; conditions: application rate 320 g/ha, rated visually after about 3 weeks vs untreated controls
How it was run: as §1

Setaria viridis [28] = assay: Herbicidal pre-emergence action (Part 2), 1280 g/ha; format: in vivo; conditions: application rate 1280 g/ha, scored visually after about 3 weeks, Table D4
How it was run: as §3

Abutilon theophrasti [29] = assay: as above; format: in vivo; conditions: application rate 1280 g/ha, scored visually after about 3 weeks, Table D5
How it was run: as §3

Lolium rigidum = assay: as above; format: in vivo; conditions: application rate 1280 g/ha, scored visually after about 3 weeks, Table D2
How it was run: as §3

Setaria viridis [30] = assay: Post-emergence herbicidal action, greenhouse, 320 g/ha; format: in vivo; conditions: application rate 320 g/ha, rated visually after about 3 weeks vs untreated controls
How it was run: as §1

Pharbitis purpurea [31] = assay: Pre-emergence herbicidal action, greenhouse, 320 g/ha; format: in vivo; conditions: application rate 320 g/ha, Table B12
How it was run: as §2

Veronica persica [32] = assay: as above; format: in vivo; conditions: application rate 320 g/ha, Table B13
How it was run: as §2

Veronica persica [33] = assay: Post-emergence herbicidal action, greenhouse, 320 g/ha; format: in vivo; conditions: application rate 320 g/ha, rated visually after about 3 weeks vs untreated controls
How it was run: as §1

photosystem II (PS II) = target: T1, photosystem II (PS II) (Spinacia oleracea, UniProt P69560); assay: Measurement of PS II activity in thylakoid membranes (DCPIP reduction); format: biochemical, spinach; conditions: PS II activity in spinach thylakoid membranes, Table E1; read-out: Effect
T1 construct: the chloroplasts were osmotically ruptured and the thylakoid membranes were then obtained by centrifugation; from tissue; host or cells: fresh spinach leaves; thylakoid membrane preparation from isolated chloroplasts
Protocol: Cooled fresh spinach leaves were comminuted and homogenized in 50 mM phosphate buffer, pH 6.8. 10 mM KCl, 0.34 M sucrose (sucrose buffer) (blender, 1 g of plant material/ml). The homogenate was subsequently filtered through 4 layers of Miracloth and the chloroplasts were isolated by centrifugation, i.e. 10 min of centrifugation at 4400×g (4° C.). The sediment was suspended in 25 ml of sucrose buffer and re-centrifuged for 10 min at 4400×g (4° C.). The sediment was then suspended in 40 ml of 50 mM phosphate buffer, pH 6.8, 10 mM KCl, without sucrose. In this step, the chloroplasts were osmotically ruptured and the thylakoid membranes were then obtained by centrifugation (10 min, 4400×g, 4° C.). The membrane sediment was finally suspended in about 20 ml of 50 mM phosphate buffer, pH 6.8, 10 mM KCl. Following protein determination and activity determination, the membrane suspension was divided into aliquots and frozen in liquid nitrogen. The aliquots were stored at −80° C. Under these conditions, the photosystem II preparation was storage stable for at least three months. The activity determination of photosystem II (PS II) was then carried out using the following test principle: The electron transfer from PS II to an artificial electron acceptor, 2,6-dichlorophenolindophenol (DCPIP), was measured with exposure to light. The concentration of the blue oxidized form of DCPIP was determined spectrophotometrically at wavelength λ=595 nm. […] The activity determination is carried out in microtiter plates (96 cavities) in a reaction volume of 200 μl. Here, 155 μl of dilute membrane suspension were initially charged in 50 mM of phosphate buffer, pH 6.8, 10 mM KCl. Depending on the activity of the PS II preparation, the dilution was adjusted such that the measurement of the decrease in absorption (λ=595 nm) was linear for at least 10 min. In each case 5 μl solutions of the test compounds of a concentration of 100 μM in DMSO were added to the enzyme suspension; controls contained 5 μl of DMSO; the final concentration of DMSO in the reaction batch was thus 2.5% (v/v); this concentration had no adverse effect on the enzymatic activity. On each microtiter plate, a known PS II inhibitor, for example metribuzin, was used as standard, which allowed the quality of the PS II test to be assessed. The reaction was started by addition of 40 μl DCPIP solution (600 μM in distilled water); the final concentration of DCPIP was 120 μM. Measurement of absorption is carried out over a period of 10 min at 22° C. and with exposure to light. Using metribuzin as comparative substance, the results for the efficacy of the compounds of the general formula (I) at 100 μM are stated in the table below using the following classification: ++++(inhibition≥90%), +++(90%>inhibition≥70%), ++(70%>inhibition≥50%), +(50%>inhibition≥30%).

Compound	Pharbitis purpurea (efficacy in %) (Pharbitis purpurea [1]) [%]	Hordeum murinum (efficacy in %) (Hordeum murinum [2]) [%]	Digitaria sanguinalis (efficacy in %) (Digitaria sanguinalis [3]) [%]	Setaria viridis (efficacy in %) (Setaria viridis [4]) [%]	Viola tricolor (efficacy in %) (Viola tricolor [5]) [%]	Avena fatua (efficacy in %) (Avena fatua) [%]	Stellaria media (efficacy in %) (Stellaria media [6]) [%]	Alopecurus myosuroides (efficacy in %) (Alopecurus myosuroides) [%]	Abutilon theophrasti (efficacy in %) (Abutilon theophrasti [7]) [%]	Echinochloa crus-galli (efficacy in %) (Echinochloa crus-galli [8]) [%]	Polygonum convolvulus (efficacy in %) (Polygonum convolvulus [9]) [%]	Hordeum murinum (efficacy in %) (Hordeum murinum [10]) [%]	Amaranthus retroflexus (efficacy in %) (Amaranthus retroflexus [11]) [%]	Matricaria inodora (efficacy in %) (Matricaria inodora [12]) [%]	Viola tricolor (efficacy in %) (Viola tricolor [22]) [%]	Stellaria media (efficacy in %) (Stellaria media [23]) [%]	Abutilon theophrasti (efficacy in %) (Abutilon theophrasti [24]) [%]	Polygonum convolvulus (efficacy in %) (Polygonum convolvulus [25]) [%]	Amaranthus retroflexus (efficacy in %) (Amaranthus retroflexus [26]) [%]	Matricaria inodora (efficacy in %) (Matricaria inodora [27]) [%]	further results
CC(=O)OC1CC(C)N(C)C(=O)N1c1cc(C(C)(C)C)on1 (mixture of isomers) [I.42-162]	100	90	100	100	90	80	100	90	100	80	90	90	100	100							Digitaria sanguinalis (efficacy in %) (Digitaria sanguinalis [13]): 80%; Stellaria media (Stellaria media [14]): 100%; Echinochloa crus-galli (Echinochloa crus-galli [15]): 100%; Amaranthus retroflexus (Amaranthus retroflexus [16]): 100%; Matricaria inodora (Matricaria inodora [17]): 100%; Poa Annua (Poa annua): 100%; Stellaria media (Stellaria media [18]): 100%; Echinochloa crus-galli (Echinochloa crus-galli [19]): 100%; Amaranthus retroflexus (Amaranthus retroflexus [20]): 100%; Matricaria inodora (Matricaria inodora [21]): 100%
CCC(=O)OC1CC2CCCN2C(=O)N1c1cc(C(C)(C)C)on1 (stereo not drawn) [I.123-162]			100												100	100	100	100	100	80	Setaria viridis (Setaria viridis [28]): 100%; Stellaria media (Stellaria media [14]): 100%; Abutilon theophrasti (Abutilon theophrasti [29]): 100%; Echinochloa crus-galli (Echinochloa crus-galli [15]): 100%; Lolium rigidum (Lolium rigidum): 100%; Amaranthus retroflexus (Amaranthus retroflexus [16]): 100%; Matricaria inodora (Matricaria inodora [17]): 100%; Poa Annua (Poa annua): 100%
CN1CCC(OC(=O)C(C)(C)C)N(c2cc(C(C)(C)C)on2)C1=O (stereo not drawn) [I.6-162]	90	90		100	100	90	100	90	100	100	90	90	100	100	100	100	100	100	80	100	Setaria viridis (efficacy in %) (Setaria viridis [30]): 100%; Pharbitis purpurea (efficacy in %) (Pharbitis purpurea [31]): 90%; Veronica persica (efficacy in %) (Veronica persica [32]): 100%
CCCC(=O)OC1CCN(C)C(=O)N1c1cc(C(C)(C)C)on1 (stereo not drawn) [I.4-162, 3-(5-tert-Butyl-1,2-oxazol-3-yl)-1-methyl-2-oxohexahydropyrimidin-4-yl Butyrate]	100		80	100	100	90	100	90	100	90	90	90	100	100	90	100	100	100	100	100	Setaria viridis (efficacy in %) (Setaria viridis [30]): 100%; Veronica persica (efficacy in %) (Veronica persica [33]): 100%; inhibition at 100 µM (photosystem II (PS II)): 50 to 70%; Veronica persica (efficacy in %) (Veronica persica [32]): 100%

— patent publication US20200390100A1, “SUBSTITUTED N-HETEROCYCLYL- AND N-HETEROARYL-TETRAHYDROPYRIMIDINONES AND THE SALTS THEREOF, AND THE USE OF SAME AS HERBICIDAL ACTIVE SUBSTANCES” (Bayer Aktiengesellschaft, priority 2017, published 2020)
